How the values were obtained:
Format in all cases: toxicity, cell-based
[1] = system: HEK-293T; assay: Incucyte cell viability with HEK293T; conditions: human, 10 µM, compound concentration 10 uM
[2] = system: Fibroblast; assay: Incucyte cell viability with human fibroblast; conditions: 10 µM, compound concentration 10 uM
[3] = system: U2OS; assay: Incucyte cell viability with U2OS; conditions: human, 10 µM, compound concentration 10 uM
Also: unitless GR value; below 1 slowed growth and below 0 cell loss.

Structure (SMILES)	Growth Rate ([1]; 6 h, replicate number 1)	Growth Rate ([1]; 6 h, replicate number 2)	Growth Rate ([1]; 12 h, replicate number 2)	Growth Rate ([1]; 18 h, replicate number 2)	Growth Rate ([1]; 24 h, replicate number 2)	Growth Rate ([2]; 6 h, replicate number 1)	Growth Rate ([2]; 6 h, replicate number 2)	Growth Rate ([2]; 12 h, replicate number 1)	Growth Rate ([2]; 12 h, replicate number 2)	Growth Rate ([2]; 18 h, replicate number 1)	Growth Rate ([2]; 18 h, replicate number 2)	Growth Rate ([2]; 24 h, replicate number 1)	Growth Rate ([2]; 24 h, replicate number 2)	Growth Rate ([3]; 0 h, replicate number 1)	Growth Rate ([3]; 0 h, replicate number 2)	Growth Rate ([3]; 12 h, replicate number 2)	Growth Rate ([3]; 18 h, replicate number 2)	Growth Rate ([3]; 24 h, replicate number 2)	Growth Rate ([1]; 12 h, replicate number 1)	Growth Rate ([3]; 6 h, replicate number 1)	further results
C[C@@H](NC(=O)Cc1ccc(C2CC2)cc1)c1ccc(OCC(F)(F)F)cn1	0.39	0.17	0.64	0.63	0.68	0.85	-0.99	-1	0.67	-0.27	0.93	0.8	0.89	-0.06	-0.85	0.53	0.79	0.87			Growth Rate ([2]; 0 h, replicate number 1): -0.4; Growth Rate ([3]; 6 h, replicate number 2): 0.67
CN1C(=O)Cc2ccc(-c3ccc(C[C@@H](C#N)NC(=O)[C@@H]4N[C@H]5CC[C@@H]4C5)c(F)c3)cc21	0.06	0.52	0.61	0.73	0.82	0.38		0.46	0.99	0.42		0.61		0.98					0.07	0.89	Growth Rate ([1]; 18 h, replicate number 1): 0.19; Growth Rate ([1]; 24 h, replicate number 1): 0.28
N#Cc1ccnc(Nc2cc(C3CCN(C4COC4)CC3)cc(N3CCC(F)(F)C3)n2)c1	0.58	-0.9	-0.54	-0.37	-0.26		-1		-0.47	-0.85	0.21	-0.29	0.43		-1	0.38	0.46	0.44	0.85	0.88	Growth Rate ([1]; 0 h, replicate number 1): -0.35; Growth Rate ([1]; 18 h, replicate number 1): 0.46; Growth Rate ([1]; 24 h, replicate number 1): 0.44; Growth Rate ([3]; 6 h, replicate number 2): 0.29; Growth Rate ([3]; 12 h, replicate number 1): 0.44; Growth Rate ([3]; 18 h, replicate number 1): 0.22; Growth Rate ([3]; 24 h, replicate number 1): 0.18
CC/C(=C(\c1ccccc1)c1ccc(OCCN(C)C)cc1)c1ccccc1.O=C(O)CC(O)(CC(=O)O)C(=O)O [TAMOXIFEN CITRATE]	0.14	0.13	0.48	0.45	0.52	0.1	0.32	-0.13	-0.01	-0.15	-0.19	-0.08	-0.21	-0.22	0.89	0.93	0.88	0.95	0.4	0.66	Growth Rate ([1]; 0 h, replicate number 2): -0.98; Growth Rate ([1]; 18 h, replicate number 1): 0.48; Growth Rate ([1]; 24 h, replicate number 1): 0.56; Growth Rate ([3]; 6 h, replicate number 2): 1; Growth Rate ([3]; 12 h, replicate number 1): 0.8; Growth Rate ([3]; 18 h, replicate number 1): 0.84; Growth Rate ([3]; 24 h, replicate number 1): 0.91
CC1CCN(C(=O)[C@H](CCn2cccc2C#N)NS(=O)(=O)c2cccc3[nH]ccc23)CC1									0.9				0.84	0.73	0.6	0.81	0.91	0.97	0.92	0.98	Growth Rate ([1]; 0 h, replicate number 1): -0.16; Growth Rate ([1]; 0 h, replicate number 2): 0.25; Growth Rate ([3]; 12 h, replicate number 1): 0.91; Growth Rate ([3]; 18 h, replicate number 1): 0.99; Growth Rate ([3]; 24 h, replicate number 1): 0.98
